Read-outs that look alike come from different tables or passages of the source.
Columns and labels:
[1] = tested on: rat liver microsomal NFO activity (CYP3A); assay: Inhibition of rat liver microsomal nifedipine oxidation; type: in vitro ADME; conditions: 100 μM, 10-min NADPH-fortified pre-incubation
[2] = oral suspension (40 mg/ml), 7 days, participants; cited from earlier work
[3] = S. Chinese remedy-treated rats; cited from earlier work
[4] = cited from earlier work
[5] = for AUC0–t / AUC0–∞ / CL/F (apparent clearance) / Cmax / Tmax / Vd/F / t1/2: rats, mean ± SEM
[6] = Stability of analytes in stored plasma samples; conditions: −80 °C, rat plasma
[7] = oral nifedipine 3 mg/kg 1 h after SY 0.95 g/kg
[8] = oral nifedipine 3 mg/kg 1 h after SY […]
[9] = oral nifedipine 3 mg/kg together with ketoconazole 30 mg/kg
[10] = oral nifedipine 3 mg/kg, control

COc1cc2c(c(OC)c1OC)-c1c(cc(OC)c(OC)c1OC)C[C@H](C)[C@H](C)C2 [schisandrin A]
decrease of NFO activity [1]: 48%

CC[C@@H]([C@H](C)O)n1ncn(-c2ccc(N3CCN(c4ccc(OC[C@@H]5CO[C@@](Cn6cncn6)(c6ccc(F)cc6F)C5)cc4)CC3)cc2)c1=O [posaconazole]
mean Cmax at 200 mg 4 times daily relative to 400 mg twice daily [2]: 2 fold

COc1cc2c(c(OC)c1OC)-c1c(cc3c(c1OC)OCO3)CC(C)C(C)C2 (stereo not drawn) [schisandrin B]
Tmax [3]: about 4 h

COC(=O)c1c(C)nc(C)c(C(=O)OC)c1-c1ccccc1[N+](=O)[O-] [Dehydronifedipine, dehydronifedipine]
AUC ratio of the dehydronifedipine to nifedipine ([4]; rats treated with nifedipine suspension (in water)): 38% | half-life (terminal) ([4]; rats, nifedipine suspended in water (10 mg/ml), oral dose 10 mg/kg): 15.7 h | AUC0–t ratio of dehydronifedipine to nifedipine ([4]; rats, ref 6 (Han et al.)): 2.7 ± 0.3% | AUC0–t ratio of dehydronifedipine to nifedipine ([5]; control rats, oral nifedipine 3 mg/kg in 50% PEG 400): 2.7 ± 0.5% | AUC0–t [5, 7]: 0.11 ± 0.01 µg·h/mL | AUC0–∞ [5, 7]: 0.13 ± 0.02 µg·h/mL | CL/F (apparent clearance) [5, 7]: 405 ± 53.3 mL/min/kg | Cmax [5, 7]: 50 ± 10 ng/mL | Tmax [5, 7]: 0.29 ± 0.05 h | Vd/F [5, 7]: 61.0 ± 13.3 L/kg | t1/2 [5, 7]: 1.9 ± 0.5 h | AUC0–t [5, 8]: 0.13 ± 0.02 µg·h/mL | AUC0–∞ [5, 8]: 0.24 ± 0.04 µg·h/mL | CL/F (apparent clearance) [5, 8]: 253 ± 55 mL/min/kg | Cmax [5, 8]: 40 ± 0 ng/mL | Tmax [5, 8]: 0.58 ± 0.08 h | Vd/F [5, 8]: 89.7 ± 14.4 L/kg | t1/2 [5, 8]: 4.8 ± 0.8 h | AUC0–t [5, 9]: 0.46 ± 0.11 ^* h·μg/ml | AUC0–∞ [5, 9]: 1.77 ± 0.53 ^* h·μg/ml | CL/F (apparent clearance) [5, 9]: 43.3 ± 16.7 mL/min/kg | Cmax [5, 9]: 100 ± 20 ng/mL | Tmax [5, 9]: 1.80 ± 0.55 h | Vd/F [5, 9]: 34.3 ± 7.4 L/kg | t1/2 [5, 9]: 12.3 ± 3.9 h | AUC0–t [5, 10]: 0.12 ± 0.02 µg·h/mL | AUC0–∞ [5, 10]: 0.14 ± 0.02 µg·h/mL | CL/F (apparent clearance) [5, 10]: 395 ± 48.3 mL/min/kg | Cmax [5, 10]: 40 ± 10 ng/mL | Tmax [5, 10]: 0.70 ± 0.12 h | Vd/F [5, 10]: 68.9 ± 9.0 L/kg | t1/2 [5, 10]: 2.0 ± 0.1 h | 14-day stability in plasma samples [6]: 99.6–100.8%

Source: paper PMC9298630 (Journal of Food and Drug Analysis, 2018)
